Source: ChEMBL document CHEMBL1201862, “PubChem BioAssay data set” (2004)
Active and inactive are the calls of the source.

Assays:
Cytochrome P450 3A4 = Cytochrome P450 3A4 (Homo sapiens, UniProt P08684); conditions: Potency;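 further: confirmatory qHTS run detecting inhibitors and substrates of CYP3A4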
[1] = biological target: Lysosomal acid glucosylceramidase (Homo sapiens, UniProt P04062); assay: Dose response cell-based high throughput screening assay to identify enhancers of beta-glucosidase activity. [Related pubchem assays: 784 ]; format: functional
Chain of Lysosomal acid glucosylceramidase (P04062 whole entry): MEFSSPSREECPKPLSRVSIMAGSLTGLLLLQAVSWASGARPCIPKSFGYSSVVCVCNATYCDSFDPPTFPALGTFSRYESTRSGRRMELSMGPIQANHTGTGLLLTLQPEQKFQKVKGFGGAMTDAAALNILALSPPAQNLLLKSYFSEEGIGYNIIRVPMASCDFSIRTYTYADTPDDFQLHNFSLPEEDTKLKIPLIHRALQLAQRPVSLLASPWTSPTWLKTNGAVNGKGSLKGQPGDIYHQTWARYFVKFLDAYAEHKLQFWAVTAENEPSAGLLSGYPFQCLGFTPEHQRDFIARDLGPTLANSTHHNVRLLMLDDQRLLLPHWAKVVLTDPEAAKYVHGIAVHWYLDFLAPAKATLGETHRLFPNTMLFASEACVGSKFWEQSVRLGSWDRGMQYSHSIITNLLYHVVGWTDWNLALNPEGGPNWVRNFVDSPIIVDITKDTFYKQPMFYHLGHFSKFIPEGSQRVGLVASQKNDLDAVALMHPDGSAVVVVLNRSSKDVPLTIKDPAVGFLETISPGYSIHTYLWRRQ

HEK293 = assay: Fluorescence-based counterscreen for potentiators or agonists of NPY-Y2: cell-based high-throughput dose response assay to identify inhibitors of cyclic nucleotide gated ion channel (CNGC) activity. In this assay, the parental HEK293 cell line transfected with a cyclic-nucleotide gated ion channel (CNGC)-based cAMP sensor is used to measure inhibition of isoproterenol-induced CNGC activity by test compound.; format: functional; conditions: Homo sapiens;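 further: stimulus is 1 µM isoproterenol at EC100 plus PDE inhibitor Ro 20-1724 at 25 µM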
[2] = biological target: T1, Neuropeptide Y receptor type 1 (Homo sapiens, UniProt P25929); assay: Fluorescence-based counterscreen for agonists of NPY-Y2: cell-based high-throughput dose response assay for agonists of NPY-Y1.; format: functional
T1 sequence (P25929 whole entry): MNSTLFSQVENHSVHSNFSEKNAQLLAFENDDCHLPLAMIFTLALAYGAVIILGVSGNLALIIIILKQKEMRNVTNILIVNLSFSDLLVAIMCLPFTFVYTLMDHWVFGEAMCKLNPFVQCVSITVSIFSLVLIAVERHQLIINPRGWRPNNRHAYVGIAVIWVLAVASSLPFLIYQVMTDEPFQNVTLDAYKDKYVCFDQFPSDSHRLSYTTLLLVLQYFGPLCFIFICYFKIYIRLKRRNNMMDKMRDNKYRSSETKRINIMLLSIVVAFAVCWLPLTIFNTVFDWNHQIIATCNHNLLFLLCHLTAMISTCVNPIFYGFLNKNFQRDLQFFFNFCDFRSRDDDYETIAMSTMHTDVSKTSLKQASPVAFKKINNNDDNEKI

[3] = biological target: T2, Neuropeptide Y receptor type 2 (Homo sapiens, UniProt P49146); assay: Fluorescence-based cell-based high-throughput dose response assay for agonists of NPY-Y2. [Related pubchem assays: 1703 (Screening assay (CNGC inhibitors).), 1359 (Screening assay (NPY-Y2 potentiators or agonists).), 1304 (Screening assay (NPY-Y1 potentiators or agonists).), 1710 (Screening assay (NPY-Y2 agonists).), 1791 (Summary AID.)]; format: functional
T2 sequence (P49146 whole entry): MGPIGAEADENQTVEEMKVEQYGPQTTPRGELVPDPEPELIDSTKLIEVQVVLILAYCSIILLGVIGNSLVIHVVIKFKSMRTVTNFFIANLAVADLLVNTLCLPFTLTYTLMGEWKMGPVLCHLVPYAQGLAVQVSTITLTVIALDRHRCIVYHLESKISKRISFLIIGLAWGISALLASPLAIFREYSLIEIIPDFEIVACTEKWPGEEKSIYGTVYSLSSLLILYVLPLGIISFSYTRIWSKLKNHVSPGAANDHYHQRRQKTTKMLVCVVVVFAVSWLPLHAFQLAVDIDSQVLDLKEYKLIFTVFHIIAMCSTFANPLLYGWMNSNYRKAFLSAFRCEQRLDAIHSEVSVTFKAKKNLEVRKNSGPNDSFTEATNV

cells = format: functional
[4] = biological target: Acyl-homoserine lactone acylase PvdQ (Pseudomonas aeruginosa (strain LESB58), UniProt Q9I194); assay: PvdQ acylase enzyme activity blockers – biochemical, fluorescence, plate reader and imaging, cherry-picks, dose response (AID 493231)
Chain of Acyl-homoserine lactone acylase PvdQ (Q9I194 24-193 limits assumed): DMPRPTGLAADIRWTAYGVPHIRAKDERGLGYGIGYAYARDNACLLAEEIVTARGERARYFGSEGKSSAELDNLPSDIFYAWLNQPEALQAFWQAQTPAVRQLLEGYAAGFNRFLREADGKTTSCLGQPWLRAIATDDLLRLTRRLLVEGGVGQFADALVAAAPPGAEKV
Chain of Acyl-homoserine lactone acylase PvdQ (Q9I194 217-762 limits assumed): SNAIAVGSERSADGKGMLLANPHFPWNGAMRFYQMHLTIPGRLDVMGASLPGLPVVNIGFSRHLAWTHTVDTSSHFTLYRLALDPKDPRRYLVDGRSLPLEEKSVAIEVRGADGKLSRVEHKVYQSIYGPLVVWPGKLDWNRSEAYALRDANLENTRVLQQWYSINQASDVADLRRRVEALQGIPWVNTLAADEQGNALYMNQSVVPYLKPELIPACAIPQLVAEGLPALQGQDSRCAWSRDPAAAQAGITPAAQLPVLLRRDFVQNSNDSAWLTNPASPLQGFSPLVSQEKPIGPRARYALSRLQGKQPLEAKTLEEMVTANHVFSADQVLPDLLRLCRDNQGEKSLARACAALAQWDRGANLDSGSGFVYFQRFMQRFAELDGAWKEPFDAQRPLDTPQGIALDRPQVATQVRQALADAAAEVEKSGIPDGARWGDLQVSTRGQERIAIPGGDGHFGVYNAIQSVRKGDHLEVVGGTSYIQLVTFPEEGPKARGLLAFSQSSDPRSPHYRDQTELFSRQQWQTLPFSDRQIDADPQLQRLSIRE

[5] = biological target: Melanin-concentrating hormone receptor 1 (Homo sapiens, UniProt Q99705); assay: Late-stage fluorescence-based counterscreen for antagonists of the G-protein coupled receptor 7 (GPR7): cell-based dose response assay to identify antagonists of the melanin-concentrating hormone receptor 1 (MCHR1). [Related pubchem assays (depositor defined):AID1861, AID1880, AID1952, AID2148, AID2251, AID2257, AID485339]; format: functional;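 further: stimulated with 30 nM MCH peptide agonist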
Chain of Melanin-concentrating hormone receptor 1 (Q99705 whole entry): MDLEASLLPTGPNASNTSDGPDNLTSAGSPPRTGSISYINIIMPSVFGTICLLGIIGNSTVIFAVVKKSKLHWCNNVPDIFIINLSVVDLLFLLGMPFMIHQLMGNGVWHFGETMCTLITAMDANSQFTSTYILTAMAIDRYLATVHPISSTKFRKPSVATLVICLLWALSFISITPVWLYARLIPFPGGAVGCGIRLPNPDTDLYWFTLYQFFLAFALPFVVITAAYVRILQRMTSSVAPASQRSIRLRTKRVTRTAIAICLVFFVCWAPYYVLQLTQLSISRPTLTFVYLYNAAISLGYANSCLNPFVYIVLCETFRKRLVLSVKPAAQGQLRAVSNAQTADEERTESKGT

Bcl-2-like protein 10 = Bcl-2-like protein 10 (Homo sapiens, UniProt Q9HD36); assay: Bcl-B/TR3 peptide binding disruption – biochemical, fluorescence polarization, FITC-TR3 peptide, selectivity assay for Bfl-1 inhibitor project, primary screen (AID 748);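 further: fluorescence polarization from a fluorescein-labelled TR3 peptide binding purified Bcl-B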
Chain of Bcl-2-like protein 10 (Q9HD36 whole entry): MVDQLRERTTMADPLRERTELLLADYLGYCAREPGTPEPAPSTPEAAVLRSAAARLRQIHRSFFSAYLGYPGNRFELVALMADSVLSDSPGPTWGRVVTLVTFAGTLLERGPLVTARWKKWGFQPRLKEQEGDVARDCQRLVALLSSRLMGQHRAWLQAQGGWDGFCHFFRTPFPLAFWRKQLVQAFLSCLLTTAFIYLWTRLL

[6] = biological target: T3, Eukaryotic translation initiation factor 2-alpha kinase 3 (Homo sapiens, UniProt Q9NZJ5); assay: Dose response cell-based high-throughput screening assay to measure PERK inhibition. [Related pubchem assays: 1416 ]; format: functional
T3 sequence (Q9NZJ5 whole entry): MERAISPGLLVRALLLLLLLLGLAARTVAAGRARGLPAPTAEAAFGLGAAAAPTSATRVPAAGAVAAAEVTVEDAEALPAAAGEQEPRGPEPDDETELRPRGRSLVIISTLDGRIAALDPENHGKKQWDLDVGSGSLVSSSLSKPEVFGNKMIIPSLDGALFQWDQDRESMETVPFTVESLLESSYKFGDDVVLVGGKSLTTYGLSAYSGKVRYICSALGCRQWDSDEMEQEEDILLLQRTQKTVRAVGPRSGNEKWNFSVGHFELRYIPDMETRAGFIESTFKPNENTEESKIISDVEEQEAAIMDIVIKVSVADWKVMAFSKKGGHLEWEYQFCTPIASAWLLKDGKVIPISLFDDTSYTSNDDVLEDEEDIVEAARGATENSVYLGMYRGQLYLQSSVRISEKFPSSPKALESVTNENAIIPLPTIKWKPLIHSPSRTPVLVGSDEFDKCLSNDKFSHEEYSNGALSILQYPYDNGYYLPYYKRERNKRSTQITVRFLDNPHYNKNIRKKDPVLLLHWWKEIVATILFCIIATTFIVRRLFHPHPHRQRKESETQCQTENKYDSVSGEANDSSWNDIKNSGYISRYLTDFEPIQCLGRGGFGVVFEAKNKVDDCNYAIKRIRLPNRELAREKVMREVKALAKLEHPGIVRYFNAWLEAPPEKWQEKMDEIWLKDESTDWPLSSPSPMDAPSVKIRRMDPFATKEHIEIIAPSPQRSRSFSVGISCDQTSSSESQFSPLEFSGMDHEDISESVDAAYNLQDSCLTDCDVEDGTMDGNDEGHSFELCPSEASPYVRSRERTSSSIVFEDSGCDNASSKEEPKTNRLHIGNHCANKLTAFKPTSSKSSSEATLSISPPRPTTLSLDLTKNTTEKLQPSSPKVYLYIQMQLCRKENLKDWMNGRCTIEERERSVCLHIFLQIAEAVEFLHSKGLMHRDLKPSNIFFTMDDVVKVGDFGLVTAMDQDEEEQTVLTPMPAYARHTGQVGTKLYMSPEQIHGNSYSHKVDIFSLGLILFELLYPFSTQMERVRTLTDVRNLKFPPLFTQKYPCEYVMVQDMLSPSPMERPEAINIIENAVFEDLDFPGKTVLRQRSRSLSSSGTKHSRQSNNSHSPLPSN

[7] = biological target: T3, Eukaryotic translation initiation factor 2-alpha kinase 3; assay: Counterscreen assay for PERK inhibitors: Dose response cell-based high throughput screening assay to measure inhibition of PERK at 6 hours. [Related pubchem assays: 1522, 1416 ]; format: functional

Chain of Cytochrome P450 3A4 (P08684 whole entry): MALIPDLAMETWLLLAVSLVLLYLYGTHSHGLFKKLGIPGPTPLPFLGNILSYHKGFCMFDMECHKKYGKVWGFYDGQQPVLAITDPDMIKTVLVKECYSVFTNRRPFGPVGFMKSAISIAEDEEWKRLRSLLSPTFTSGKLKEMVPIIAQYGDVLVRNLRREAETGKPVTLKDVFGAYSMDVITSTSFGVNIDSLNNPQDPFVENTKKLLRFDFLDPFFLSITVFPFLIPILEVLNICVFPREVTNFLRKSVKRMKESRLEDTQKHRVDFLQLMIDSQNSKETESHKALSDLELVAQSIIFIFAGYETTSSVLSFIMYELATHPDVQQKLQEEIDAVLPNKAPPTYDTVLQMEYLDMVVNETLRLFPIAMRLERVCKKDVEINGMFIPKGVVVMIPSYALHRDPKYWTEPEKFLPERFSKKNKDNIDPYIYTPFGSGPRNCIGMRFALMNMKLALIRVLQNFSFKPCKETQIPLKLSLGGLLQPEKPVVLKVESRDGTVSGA

With `CCC(C(=O)O)C1CCC(C)C(C(C)C(O)C(C)C(=O)C(CC)C2OC3(C=CC(O)[C@@]4(CC[C@](C)(C5CC[C@@](O)(CC)C(C)O5)O4)O3)C(C)CC2C)O1` (stereo partly drawn) the AC50 (Cytochrome P450 3A4) was 39.8 µM (inconclusive).
In the case of `COCc1nnc(NC(=O)c2ccc(S(=O)(=O)N(C)C3CCCCC3)cc2)o1`, the EC50 [1] is reported as > 10 µM (not active).
With `Cc1ccccc1OCC(O)CN1CCC(C)CC1` (stereo not drawn) the EC50 (HEK293) was 4.67 µM (active), the EC50 [2] was 21.8 µM (not active) and the EC50 [3] was 33.3 µM (not active).
In the case of `CCOC(=O)c1c(C)n(C)c2ccc(OC(C)C(=O)OC)cc12` (stereo not drawn), the IC50 (cells) is reported as 20.9 µM (active) and the EC50 [1] is reported as > 10 µM (not active).
In the case of `O=C(NC1CCCC1)c1cccc(Cl)c1`, the AC50 [4] is reported as 3.13 µM (active).
In the case of `O=C(OCc1nc2ccccc2s1)c1ccco1`, the AC50 [4] is reported as 30.3 µM (active).
In the case of `COc1ccc(Oc2c(Cl)cnn(-c3cccc(C(C)C)c3)c2=O)cc1`, the IC50 [5] is reported as 1.7 µM (active).
With `COC(=O)[C@@H]1C[C@@]2(O)[C@H](O)[C@H](O)[C@H](O)C[C@H]2N1Cc1cc(OC)cc(OC)c1` the AC50 (Cytochrome P450 3A4) was 15.8 µM (inconclusive).
With `COc1ccc(Oc2c(Cl)cnn(-c3ccc(C)cc3)c2=O)cc1OC` the IC50 [5] was 8.2 µM (active).
In the case of `Cc1csc2nc(CNS(=O)(=O)N(C)C)cn12`, the IC50 (Bcl-2-like protein 10) is reported as > 100 µM (inactive).
For `CN(Cc1ccccc1)C(=O)CCNC(=O)Cn1cnc2ccccc2c1=O`, the EC50 (HEK293) was > 35.4 µM (not active), the EC50 [2] was > 35.4 µM (not active) and the EC50 [3] was > 35.4 µM (not active).
For `Cc1cnc(O)c([N+](=O)[O-])c1`, the EC50 [6] was > 55.7 µM (not active) and the EC50 [7] was > 55.7 µM (not active).
